Measurements published in PubChem BioAssay AID330 (DTP/NCI, 2004).
Several values for one entry are separate records, joined by “and”; a condition that tells them apart may be missing. Equal entries are not always repeated. Toxic doses and inconclusive results are not listed. How the source made its calls: active means survival T/C of 150% or more; inactive means T/C below 125% in these data. Peptide text beside a SMILES is read from it. * marks the point of attachment. Boc = CC(C)(C)OC(=O)*; NHNH2 = NN*

System: P388 leukemia ip, CD2F1 mice, survival T/C
Experiment: NCI In Vivo Anticancer Drug Screen. Data for tumor model P388 Leukemia (intraperitoneal) in CD2F1 (CDF1) mice
Conditions: endpoint: median survival time, higher = longer survival
How it was run: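 Mice carrying the transplanted tumor received test compound or vehicle. Survival was recorded in each group, and the value is the treated-group measurement divided by that of the vehicle-treated control group.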

Measured: T/C

CC(=O)OCC1C(=O)OCC1C(=O)N1Cc2cc3ccccc3nc2C1 (centres undefined)
inactive: dose: 6.25 mg/kg/injection, schedule: Q01DX009 (ip), vehicle: saline with Tween-80 100 % of control | dose: 8.0 mg/kg/injection, schedule: Q01DX009 (ip), vehicle: saline with Tween-80 104 % of control and 93 % of control and 97 % of control | dose: 12.5 mg/kg/injection, schedule: Q01DX009 (ip), vehicle: saline with Tween-80 113 % of control | dose: 16.0 mg/kg/injection, schedule: Q01DX009 (ip), vehicle: saline with Tween-80 105 % of control and 116 % of control and 98 % of control | dose: 25.0 mg/kg/injection, schedule: Q01DX009 (ip), vehicle: saline with Tween-80 105 % of control | dose: 32.0 mg/kg/injection, schedule: Q01DX009 (ip), vehicle: saline with Tween-80 113 % of control and 116 % of control and 97 % of control | dose: 50.0 mg/kg/injection, schedule: Q01DX009 (ip), vehicle: saline with Tween-80 105 % of control | dose: 64.0 mg/kg/injection, schedule: Q01DX009 (ip), vehicle: saline with Tween-80 99 % of control and 105 % of control | dose: 128.0 mg/kg/injection, schedule: Q01DX009 (ip), vehicle: saline with Tween-80 100 % of control and 106 % of control and 108 % of control

CC(=O)NC(CCO)C(N)=O (centres undefined)
inactive: dose: 12.5 mg/kg/injection, schedule: Q01DX009 (ip), vehicle: water 99 % of control and 100 % of control | dose: 25.0 mg/kg/injection, schedule: Q01DX009 (ip), vehicle: water 106 % of control | dose: 50.0 mg/kg/injection, schedule: Q01DX009 (ip), vehicle: water 107 % of control and 120 % of control | dose: 100.0 mg/kg/injection, schedule: Q01DX009 (ip), vehicle: water 111 % of control and 94 % of control | dose: 200.0 mg/kg/injection, schedule: Q01DX009 (ip), vehicle: water 100 % of control and 101 % of control

CN(C)CC/C=C1/c2ccccc2Sc2ccc(Cl)cc21
inactive: dose: 6.25 mg/kg/injection, schedule: Q01DX005 (ip), vehicle: saline with Tween-80 104 % of control | dose: 12.5 mg/kg/injection, schedule: Q01DX005 (ip), vehicle: saline with Tween-80 111 % of control

CC(C)CC(NC(=O)OCc1ccccc1)C(=O)NC(Cc1c[nH]c2ccccc12)C(=O)O (centres undefined)
inactive: dose: 50.0 mg/kg/injection, schedule: Q01DX005 (ip), vehicle: saline with Tween-80 100 % of control | dose: 100.0 mg/kg/injection, schedule: Q01DX005 (ip), vehicle: saline with Tween-80 103 % of control | dose: 200.0 mg/kg/injection, schedule: Q01DX005 (ip), vehicle: saline with Tween-80 102 % of control

CCCCCCOC(=O)C(O)c1ccccc1 (centres undefined)
inactive: dose: 100.0 mg/kg/injection, schedule: Q01DX009 (ip), vehicle: saline with Tween-80 100 % of control | dose: 200.0 mg/kg/injection, schedule: Q01DX009 (ip), vehicle: saline with Tween-80 109 % of control

C=C(Br)COc1ccc2c(C)cc(=O)oc2c1
inactive: dose: 60.0 mg/kg/injection, schedule: Q01DX005 (ip), vehicle: saline with Tween-80 115 % of control | dose: 120.0 mg/kg/injection, schedule: Q01DX005 (ip), vehicle: saline with Tween-80 100 % of control | dose: 240.0 mg/kg/injection, schedule: Q01DX005 (ip), vehicle: saline with Tween-80 96 % of control

CNC(=O)OCc1c(C)oc(-c2ccccc2)c1COC(=O)NC
inactive: dose: 12.5 mg/kg/injection, schedule: Q01DX009 (ip), vehicle: distilled water + Tween-80 93 % of control | dose: 25.0 mg/kg/injection, schedule: Q01DX009 (ip), vehicle: distilled water + Tween-80 90 % of control | dose: 50.0 mg/kg/injection, schedule: Q01DX009 (ip), vehicle: distilled water + Tween-80 100 % of control

O=C1NC(=O)C(=NC2C(=O)NC(=O)NC2=O)C(=O)N1
inactive: dose: 30.0 mg/kg/injection, schedule: Q01DX005 (ip), vehicle: saline 96 % of control | dose: 60.0 mg/kg/injection, schedule: Q01DX005 (ip), vehicle: saline 92 % of control and 95 % of control | dose: 120.0 mg/kg/injection, schedule: Q01DX005 (ip), vehicle: saline 92 % of control | dose: 240.0 mg/kg/injection, schedule: Q01DX005 (ip), vehicle: saline 86 % of control

CC1OC(=O)C2=CCC(O)C(O)C2C1NC(=O)OCc1ccccc1 (centres undefined)
inactive: dose: 100.0 mg/kg/injection, schedule: Q01DX001 (ip), vehicle: saline with Tween-80 108 % of control | dose: 200.0 mg/kg/injection, schedule: Q01DX001 (ip), vehicle: saline with Tween-80 108 % of control | dose: 400.0 mg/kg/injection, schedule: Q01DX001 (ip), vehicle: saline with Tween-80 101 % of control

CC(C)(C)OC(=O)NC(Cc1c[nH]c2ccccc12)C(=O)NC(CS)C(=O)NN (stereo not drawn) (Boc-Trp-Cys-NHNH2; configuration not given here)
inactive: dose: 12.5 mg/kg/injection, schedule: Q01DX009 (ip), vehicle: other 90 % of control | dose: 25.0 mg/kg/injection, schedule: Q01DX009 (ip), vehicle: other 94 % of control | dose: 50.0 mg/kg/injection, schedule: Q01DX009 (ip), vehicle: other 88 % of control | dose: 100.0 mg/kg/injection, schedule: Q01DX009 (ip), vehicle: other 98 % of control | dose: 200.0 mg/kg/injection, schedule: Q01DX009 (ip), vehicle: other 94 % of control
